Numbers after ± are expanded uncertainties.
Details: Liquid, Closed cell (Static) method

In the case of `FCC(F)(F)F` [1,1,1,2-tetrafluoroethane], the “vapor or sublimation pressure” value (293.15 K) is reported as 571.1 ± 5.1 kPa, the “vapor or sublimation pressure” value (303.15 K) is reported as 771.4 ± 5.2 kPa and the “vapor or sublimation pressure” value (313.15 K) is reported as 1018.1 ± 5.3 kPa. For the same compound, the “vapor or sublimation pressure” value (323.14 K) was 1316.9 ± 5.5 kPa.
For `FCF` [difluoromethane], the “vapor or sublimation pressure” value (293.15 K) was 1473.2 ± 5.7 kPa, the “vapor or sublimation pressure” value (303.15 K) was 1926.7 ± 6.1 kPa and the “vapor or sublimation pressure” value (313.15 K) was 2476.3 ± 6.6 kPa. The “vapor or sublimation pressure” value (323.14 K) was 3142.2 ± 7.2 kPa.
In the case of `F/C=C/C(F)(F)F` [trans-1,3,3,3-tetrafluoropropene], the “vapor or sublimation pressure” value (293.15 K) is reported as 427.4 ± 5.1 kPa, the “vapor or sublimation pressure” value (303.15 K) is reported as 577.6 ± 5.1 kPa and the “vapor or sublimation pressure” value (313.15 K) is reported as 765.3 ± 5.2 kPa. For the same compound, the “vapor or sublimation pressure” value (323.14 K) was 997.8 ± 5.3 kPa.

Reference: the NIST ThermoML archive (doi:10.1016/j.jct.2019.04.020)
